Experimental data from US9540391B2, “Isomannide derivatives as inhibitors of soluble epoxide hydrolase” (SANOFI, priority 2013, dated 2017).
Structures can show the parent of a compound that is named as a salt.

Target: T1, recombinant sEH (Homo sapiens, UniProt P34913)
T1 construct: made in house; host or cells: Sf9 insect cells
T1 sequence (P34913 1-555): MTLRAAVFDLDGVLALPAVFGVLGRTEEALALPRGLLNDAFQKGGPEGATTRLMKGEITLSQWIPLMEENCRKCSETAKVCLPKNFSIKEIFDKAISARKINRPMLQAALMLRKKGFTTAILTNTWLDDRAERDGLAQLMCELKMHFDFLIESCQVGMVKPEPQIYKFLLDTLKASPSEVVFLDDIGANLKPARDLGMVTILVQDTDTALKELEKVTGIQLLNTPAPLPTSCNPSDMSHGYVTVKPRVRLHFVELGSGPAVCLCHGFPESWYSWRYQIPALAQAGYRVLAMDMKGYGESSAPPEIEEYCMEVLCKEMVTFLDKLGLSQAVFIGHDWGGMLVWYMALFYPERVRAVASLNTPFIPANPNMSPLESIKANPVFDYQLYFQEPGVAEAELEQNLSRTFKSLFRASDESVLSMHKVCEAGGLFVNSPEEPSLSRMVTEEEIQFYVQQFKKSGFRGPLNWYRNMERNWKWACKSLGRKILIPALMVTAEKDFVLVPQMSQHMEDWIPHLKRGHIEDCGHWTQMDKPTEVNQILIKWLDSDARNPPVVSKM
Test: biochemical screening assay for inhibition of soluble epoxide hydrolase (fluorometric, Phome substrate)
How it was run: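 Human sEH from Sf9 cells (2 nM final) was pre-incubated 15 min at 30 °C with compound (0.0001–10 μM), then reacted 60 min at 30 °C with 5 μM Phome in 25 mM Hepes/0.01% albumin. Fluorescence of released 6-methoxy-2-naphthaldehyde was read before substrate and at end; IC50 from % inhibition.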

SMILES	IC50 [nM]
O=C(NC1CCCCC1)N[C@H]1CO[C@H]2[C@@H]1OC[C@@H]2Oc1ccc(N2CCC(F)(F)CC2)nc1 [Example 71, 1-Cyclohexyl-3-[(3S,3aR,6S,6aS)-6-(4,4-difluoro-3,4,5,6-tetrahydro-2H-[1,2′]bipyridinyl-5′-yloxy)-hexahydro-furo[3,2-b]furan-3-yl]-urea]	7
O=C(NC1CCCCC1)N[C@H]1CO[C@H]2[C@@H]1OC[C@@H]2Sc1nccs1 [Example 56, 1-Cyclohexyl-3-[(3S,3aR,6S,6aS)-6-(thiazol-2-ylsulfanyl)-hexahydro-furo[3,2-b]furan-3-yl]-urea]	2
O=C(NC1CCCCC1)N[C@H]1CO[C@H]2[C@@H]1OC[C@@H]2/C=C\c1ccc2c(c1)OCO2 [Example 317, 1-[(3S,3aR,6S,6aR)-6-((Z)-2-Benzo[1,3]dioxol-5-yl-vinyl)-hexahydro-furo[3,2-b]furan-3-yl]-3-cyclohexyl-urea]	3
COC(=O)c1cccc(NC(=O)N[C@H]2CO[C@H]3[C@@H]2OC[C@@H]3/C=C\c2ccsc2)c1 [Example 343, 3-{3-[(3S,3aR,6S,6aR)-6-((Z)-2-Thiophen-3-yl-vinyl)-hexahydro-furo[3,2-b]furan-3-yl]-ureido}-benzoic acid methyl ester]	102
CCCCOc1ccc(NC(=O)NC2COC3C(C#Cc4ccccc4)COC23)cc1 [Example 283, 1-(4-Butoxy-phenyl)-3-[(3S,3aR,6R)-6-((S)-phenylethynyl)-hexahydro-furo[3,2-b]furan-3-yl]-urea]	70
O=C(NC1CCCCC1)N[C@H]1CO[C@H]2[C@@H]1OC[C@@H]2Sc1cnccn1 [Example 55, 1-Cyclohexyl-3-[(3S,3aR,6S,6aS)-6-(pyrazin-2-ylsulfanyl)-hexahydro-furo[3,2-b]furan-3-yl]-urea]	< 1
O=C(NC1CCCCC1)N[C@H]1CO[C@H]2[C@@H]1OC[C@@H]2Sc1ccc(Cl)cn1 [Example 63, 1-[(3S,3aR,6S,6aS)-6-(5-Chloro-pyridin-2-ylsulfanyl)-hexahydro-furo[3,2-b]furan-3-yl]-3-cyclohexyl-urea]	1
Cc1ncccc1O[C@H]1CO[C@H]2[C@@H]1OC[C@@H]2NC(=O)NC1(C)COC1 [Example 240, 1-(3-Methyl-oxetan-3-yl)-3-[(3S,3aR,6S,6aS)-6-(2-methyl-pyridin-3-yloxy)-hexahydro-furo[3,2-b]furan-3-yl]-urea]	3430
CC(=O)c1cccc(O[C@H]2CO[C@H]3[C@@H]2OC[C@@H]3NC(=O)NC2CCCCC2)c1 [Example 106, 1-[(3S,3aR,6S,6aS)-6-(3-Acetyl-phenoxy)-hexahydro-furo[3,2-b]furan-3-yl]-3-cyclohexyl-urea]	3
COCC(C)NC(=O)N[C@H]1CO[C@H]2[C@@H]1OC[C@@H]2Oc1cccnc1C (stereo partly drawn) [Example 183, 1-(2-Methoxy-1-methyl-ethyl)-3-[(3S,3aR,6S,6aS)-6-(2-methyl-pyridin-3-yloxy)-hexahydro-furo[3,2-b]furan-3-yl]-urea]	846
Cc1ncccc1O[C@H]1CO[C@H]2[C@@H]1OC[C@@H]2NC(=O)NC1CCCCC1C (stereo partly drawn) [Example 259, 1-(2-Methyl-cyclohexyl)-3-[(3S,3aR,6S,6aS)-6-(2-methyl-pyridin-3-yloxy)-hexahydro-furo[3,2-b]furan-3-yl]-urea]	5
O=C(NC1CCCCC1)N[C@H]1CO[C@H]2[C@@H]1OC[C@@H]2Oc1ccc(F)cc1 [Example 24, 1-Cyclohexyl-3-[(3S,3aR,6S,6aS)-6-(4-fluoro-phenoxy)-hexahydro-furo[3,2-b]furan-3-yl]-urea]	4
Cc1cccnc1CCNC(=O)N[C@H]1CO[C@H]2[C@@H]1OC[C@@H]2Oc1cccnc1C [Example 205, 1-[2-(3-Methyl-pyridin-2-yl)-ethyl]-3-[(3S,3aR,6S,6aS)-6-(2-methyl-pyridin-3-yloxy)-hexahydro-furo[3,2-b]furan-3-yl]-urea]	528
Cc1ncccc1OC1COC2C(NC(=O)NCC3CCCCC3(C)O)COC12 [Example 242, 1-((1R,2R)-2-Hydroxy-2-methyl-cyclohexylmethyl)-3-[(3S,3aR,6S,-6aS)-6-(2-methyl-pyridin-3-yloxy)-hexahydro-furo[3,2-b]furan-3-yl]-urea]	37
O=C(NC1CCCCC1)N[C@H]1CO[C@H]2[C@@H]1OC[C@@H]2Oc1cccc(CNC2CC2)c1 [Example 128, 1-Cyclohexyl-3-[(3S,3aR,6S,6aS)-6-(3-cyclopropylaminomethyl-phenoxy)-hexahydro-furo[3,2-b]furan-3-yl]-urea; trifluoroacetate]	10
CC(C)S[C@H]1CO[C@H]2[C@@H]1OC[C@@H]2NC(=O)NC1CCCCC1 [Example 17, 1-Cyclohexyl-3-((3S,3aR,6S,6aS)-6-isopropylsulfanyl-hexahydro-furo[3,2-b]furan-3-yl)-urea]	1
O=C(Nc1cccc(C(F)(F)F)c1)N[C@H]1CO[C@H]2[C@@H]1OC[C@@H]2C#Cc1ccsc1 [Example 316, 1-((3S,3aR,6S,6aR)-6-Thiophen-3-ylethynyl-hexahydro-furo[3,2-b]furan-3-yl)-3-(3-trifluoromethyl-phenyl)-urea]	87
O=C(NC1CCCCC1)N[C@H]1CO[C@H]2[C@@H]1OC[C@@H]2/C=C\c1ccccc1 [Example 319, 1-Cyclohexyl-3-[(3S,3aR,6S,6aR)-6-((Z)-styryl)-hexahydro-furo[3,2-b]furan-3-yl]-urea]	17
O=C(Nc1ccc(OC(F)(F)F)cc1)N[C@H]1CO[C@@H]2[C@@H](CCc3ccsc3)CO[C@@H]21 [Example 374, 1-[(3S,3aR,6S,6aR)-6-(2-Thiophen-3-yl-ethyl)-hexahydro-furo[3,2-b]furan-3-yl]-3-(4-trifluoromethoxy-phenyl)-urea]	235
COc1cc(NC(=O)NC2COC3C(C=Cc4ccsc4)COC23)cc(OC)c1 [Example 335, 1-(3,5-Dimethoxy-phenyl)-3-[(3S,3aR,-6S,6aR)-6-((Z)-2-thiophen-3-yl-vinyl)-hexahydro-furo[3,2-b]furan-3-yl]-urea]	665
Cc1ncccc1O[C@H]1CO[C@H]2[C@@H]1OC[C@@H]2NC(=O)NC1(c2cccnc2)CC1 [Example 238, 1-[(3S,3aR,6S,6aS)-6-(2-Methyl-pyridin-3-yloxy)-hexahydro-furo[3,2-b]furan-3-yl]-3-(1-pyridin-3-yl-cyclopropyl)-urea]	2060
Cc1ncccc1O[C@H]1CO[C@H]2[C@@H]1OC[C@@H]2NC(=O)NC1CCCN(C(=O)c2ccc(F)cc2)C1 (stereo partly drawn) [Example 83, 1-[1-(4-fluoro-benzoyl)-piperidin-3-yl]-3-[(3S,3aR,6S,6aS)-6-(2-methyl-pyridin-3-yloxy)-hexahydro-furo[3,2-b]furan-3-yl]-urea]	182
O=C(NC1CCCCC1)N[C@H]1CO[C@H]2[C@@H]1OC[C@@H]2Oc1cccc(N2CCNCC2)c1 [Example 142, 1-Cyclohexyl-3-[(3S,3aR,6S,6aS)-6-(3-piperazin-1-yl-phenoxy)-hexahydro-furo[3,2-b]furan-3-yl]-urea; trifluoroacetate]	30
Cc1ccc(S[C@H]2CO[C@H]3[C@@H]2OC[C@@H]3NC(=O)NC2CCCCC2)nn1 [Example 57, 1-Cyclohexyl-3-[(3S,3aR,6S,6aS)-6-(6-methyl-pyridazin-3-ylsulfanyl)-hexahydro-furo[3,2-b]furan-3-yl]-urea]	3
O=C(Nc1ccc(OC(F)(F)F)cc1)N[C@H]1CO[C@H]2[C@@H]1OC[C@@H]2C#Cc1ccsc1 [Example 315, 1-((3S,3aR,6S,6aR)-6-Thiophen-3-ylethynyl-hexahydro-furo[3,2-b]furan-3-yl)-3-(4-trifluoromethoxy-phenyl)-urea]	15
Cc1ncccc1O[C@H]1CO[C@H]2[C@@H]1OC[C@@H]2NC(=O)NCC1COC(C)(C)O1 (stereo partly drawn) [Example 191, 1-(2,2-Dimethyl-[1,3]dioxolan-4-ylmethyl)-3-[(3S,3aR,6S,6aS)-6-(2-methyl-pyridin-3-yloxy)-hexahydro-furo[3,2-b]furan-3-yl]-urea]	489
O=C(NC1CCCCC1)N[C@H]1CO[C@@H]2[C@@H](CCc3ccccc3)CO[C@@H]21 [Example 349, 1-Cyclohexyl-3-((3S,3aR,6S,6aR)-6-phenethyl-hexahydro-furo[3,2-b]furan-3-yl)-urea]	37
Cc1ncccc1O[C@H]1CO[C@H]2[C@@H]1OC[C@@H]2NC(=O)NC1CCC2(CC1)OCCO2 [Example 266, 1-(1,4-Dioxa-spiro[4.5]dec-8-yl)-3-[(3S,3aR,6S,6aS)-6-(2-methyl-pyridin-3-yloxy)-hexahydro-furo[3,2-b]furan-3-yl]-urea]	16
Cc1ncccc1O[C@H]1CO[C@H]2[C@@H]1OC[C@@H]2NC(=O)NCc1cccc2c1OC(C)(C)C2 [Example 224, 1-(2,2-Dimethyl-2,3-dihydro-benzofuran-7-ylmethyl)-3-[(3S,3aR,6S,6aS)-6-(2-methyl-pyridin-3-yloxy)-hexahydro-furo[3,2-b]furan-3-yl]-urea]	39
CC1(C)CC(=O)c2cc(O[C@H]3CO[C@H]4[C@@H]3OC[C@@H]4NC(=O)NC3CCCCC3)ccc2O1 [Example 114, 1-Cyclohexyl-3-[(3S,3aR,6S,6aS)-6-(2,2-dimethyl-4-oxo-chroman-6-yloxy)-hexahydro-furo[3,2-b]furan-3-yl]-urea]	4
